Experimental data reported in patent US4918193A, “Methods for preparing 3-[N-phenyl-acetylaminopiperidine]-2,6-dion” (priority 1989, dated 1990).
Entries after “also recorded” stand apart in the source; their conditions may differ. Where a name gives a salt, the structure may show the parent alone. Read-outs that look alike come from different tables or passages of the source.

Assays:
[1] = Hydrolysis of the sodium salt upon standing; type: physicochemical
Description: Five thousand grams of 3-[N-phenylacetylaminopiperidine]-2,6-dion was pulverized in a grinder, then suspended in 44 liters of pyrogen-free water. Concentrated sodium hydroxide in pyrogen-free water was added stepwise and stirred until all the powder was dissolved. The pH of the mixture was 7.0. Activated charcoal (U.S.P.) was added and stirred for 45 minutes, and then filtered. The concentration of the filtrate was adjusted to 103 mg/ml with pyrogen free water. The filtrate was then processed according to standard U.S.P. procedure for large volume injections of single dose infusions.

[2] = tested on: advanced neoplastic diseases; assay: Phase I clinical studies, 500 mg capsules (Example 1); type: in vivo, human; settings: 500 mg capsules daily
Description: The phase I clinical studies with 3-[N-phenylacetylaminopiperidine]-2,6-dion 500 mg capsules involved 42 patients diagnosed with 49 types of advanced neoplastic diseases. The formulation was administered daily for from 6 to 314 days. The highest dosage taken was 288.4 mg/kg/24 hours. […] Positive clinical response was obtained in 75% of 49 treated cases.

[3] = tested on: human neoplastic diseases; assay: Treatment of various human neoplastic diseases (general clinical statement); type: in vivo
Description: Various human neoplastic diseases were treated with 3-[N-phenylacetylaminopiperidine]-2,6-dion or its degradation products.

[4] = Acute toxicity in mice, intraperitoneal injection
[5] = tested on: Rd/3 sarcoma; settings: rats, Neish, Experientia, 27: 860 (1971), cited from earlier work

With `O=C1CCC(NC(=O)Cc2ccccc2)C(=O)N1` (stereo not shown) [3-[N-phenylacetylaminopiperidine]2,6-dion sodium salt] the “basic hydrolysis upon standing” value [1] was “undergoes basic hydrolysis to form the sodium salts of phenylacetyl glutamine and phenylacetyl isoglutamine”.

With `O=C1CCC(NC(=O)Cc2ccccc2)C(=O)N1` (stereo not shown) [3-[N-phenylacetylaminopiperidine]-2,6-dion] the “best clinical effects observed in” value [2] was “chronic myelocytic leukemia and chronic lymphocytic leukemia, adenocarcinoma of the prostate, carcinoma of the breast and glioma”, the desirable side effects [2] was “decrease of plasma levels of triglycerides and cholesterol; also recorded: increase of white blood cell count, red blood cell count and platelet count; also recorded: improvement of blood clotting” and the adverse reactions ([2]; highest dosage 288.4 mg/kg/24 hours) was “minimal adverse reactions, including excessive gas, gastrointestinal bleeding (most likely not related to 3-[N-phenylacetylaminopiperidine]-2,6-dion but to primary disease), moderately increased blood pressure, skin rash, vertigo, hypokalemia, hypoglycemia and mild myelosuppression”. The Positive clinical response ([2]; of 49 treated cases, 6 to 314 days) was 75%, the “usefulness / effectiveness in the treatment of human cancers” value ([3]; Applicant's clinical studies) was “effective to some extent in aiding the regression of tumors” and the “regression of tumors associated with named human cancers” value ([3]; cancer of esophagus, breast, bladder, colon, lung, prostate, pancreas, uterine cervix, brain, bone and lung metastases, lymphatic lymphoma) was “with success in the regression of tumors”. For the same compound, the “autopsy and microscopic findings in animals which died” value ([4]; HA/ICR swiss mice, intraperitoneal) was “congestion of the liver and marked pulmonary edema”, the “acute toxicity, overall” value ([4]; experimental animals) was “very low toxicity” and the “observation of surviving animals” value ([4]; kept one week under close observation) was “normal activity”. The “autopsy and microscopic examination of tissues of surviving animals” value ([4]; sacrificed after a week, versus control uninjected subjects) was “identical to those of control, uninjected subjects”.

In the case of `O=C(O)Cc1ccccc1` [sodium salt of phenylacetic acid], the “effect on tumor growth, Rd/3 sarcoma” value [5] is listed as “failed to inhibit tumor growth” and the “effect on tumor growth, Rd/3 sarcoma” value ([5]; listed as phenylacetic acid) is listed as “some enhancement of tumor growth”.
